The subject of assay [1] is MIAPaCa-2 (pancreas). Briefly: In vitro cytotoxic activity (MTT) assay, MIAPaCa-2. Format: cell-based. The settings on record: Homo sapiens, MIA PaCa-2, exposed 96 hours, read-out: IC50, 50% inhibition of cell proliferation. The procedure:
(§1) Compounds 1-16 were screened for their in vitro cytotoxic activity utilizing a 3-(4,5-dimethyl-thiazol-2-yl)-2,5-diphenyltetrazolium bromide (MTT) assay against selected cancer human cell lines consisting of PC3 (prostate), HCT116 (colon), A375 (melanoma), H1299 (lung), MIAPaCa-2 (pancreas), HL60 (leukemia), MCF7 (breast), MDA-MB-231 (breast) (T. Mosmann, J. Immunol. Meth., 1983, 65, 55-63). The cells were cultured at 37° C. in RMPI1640 medium supplemented with 10% fetal bovine serum, 50 IU/mL penicillin, and 50 μg/mL streptomycin in a 5% CO2 incubator. All cells were sub-cultured 3 times/week by trypsinisation. Viable cells were seeded and allowed to adhere for 12 h before a test drug was added in 96-well plates at an initial density of 1.0×10^5 cells/mL. Tumour cell lines were separately exposed to various concentrations of the tested compounds followed by incubation at a temperature of 37° C. during 96 h inside a medium of fresh RMPI 1640. Cells were subsequently incubated at 37° C. using MTT at 0.5 mg/mL during 4 h. After removal of supernatant, formazan crystals were dissolved in isopropanol and the optical density was measured at 570 nm. CX-4945 was used as a positive control.

Assay [2] has as its system MDA-MB-231 (breast). Briefly: In vitro cytotoxic activity (MTT) assay, MDA-MB-231. Format: cell-based. Conditions: Homo sapiens, exposed 96 hours, read-out: IC50, 50% inhibition of cell proliferation. As to the method: as §1
In assay [3] the test system is A375 (melanoma). Briefly: In vitro cytotoxic activity (MTT) assay, A375. It counts as cell-based. Conditions: Homo sapiens, A-375, exposed 96 hours, read-out: IC50, 50% inhibition of cell proliferation. As to the method: as §1
The subject of assay [4] is HL60 (leukemia). Briefly: In vitro cytotoxic activity (MTT) assay, HL60. It counts as cell-based. Conditions: Homo sapiens, HL-60, exposed 96 hours, read-out: IC50, 50% inhibition of cell proliferation. The procedure: as §1
The test system of assay [5] is HCT116 (colon). Description: In vitro cytotoxic activity (MTT) assay, HCT116. It counts as cell-based. Conditions: Homo sapiens, HCT-116, exposed 96 hours, read-out: IC50, 50% inhibition of cell proliferation. The procedure: as §1
Assay [6] has as its system PC3 (prostate). Description: In vitro cytotoxic activity (MTT) assay, PC3. Format: cell-based. The settings on record: Homo sapiens, exposed 96 hours, read-out: IC50, 50% inhibition of cell proliferation. The procedure: as §1
For assay [7], the system named is MCF7 (breast). Briefly: In vitro cytotoxic activity (MTT) assay, MCF7. Format: cell-based. The settings on record: Homo sapiens, exposed 96 hours, read-out: IC50, 50% inhibition of cell proliferation. The procedure: as §1
Assay [8] deals with T1, recombinant human CK2 (RRββ-holoenzyme) (Homo sapiens, UniProt P68400).
T1 construct: purchased Millipore
T1 sequence (P68400 whole entry): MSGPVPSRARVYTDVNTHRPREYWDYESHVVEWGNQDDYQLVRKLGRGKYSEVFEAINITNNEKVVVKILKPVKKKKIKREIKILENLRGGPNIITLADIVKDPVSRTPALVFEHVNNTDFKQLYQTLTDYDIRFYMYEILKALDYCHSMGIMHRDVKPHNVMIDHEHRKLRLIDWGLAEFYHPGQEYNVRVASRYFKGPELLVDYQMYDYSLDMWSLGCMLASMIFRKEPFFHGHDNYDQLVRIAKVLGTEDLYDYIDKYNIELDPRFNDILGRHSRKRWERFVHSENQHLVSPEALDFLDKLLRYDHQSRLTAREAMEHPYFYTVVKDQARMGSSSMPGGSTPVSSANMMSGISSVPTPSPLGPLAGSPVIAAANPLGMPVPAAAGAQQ
T1 sequence (P67870 whole entry partner): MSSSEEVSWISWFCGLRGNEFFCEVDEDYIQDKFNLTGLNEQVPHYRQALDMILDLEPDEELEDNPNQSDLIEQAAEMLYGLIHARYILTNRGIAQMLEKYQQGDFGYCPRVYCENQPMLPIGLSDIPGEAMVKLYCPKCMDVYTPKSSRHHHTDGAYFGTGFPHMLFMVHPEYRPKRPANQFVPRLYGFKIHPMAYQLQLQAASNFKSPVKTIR
Description: CK2 Kinase Assay (33P-ATP, peptide RRRDDDSDDD). It counts as biochemical. Conditions: final ATP 15 μM, 10 min at 30° C.; read-out: IC50, protein kinase CK2 activity. The procedure:
CK2 Kinase Assay was conducted using the protocol as described in Pierre F. et al; J. Med. Chem. 2011, 54, 635-654. The tested compounds in aqueous solution were added at a volume of 10 μL to a reaction mixture comprising 10 μL of assay dilution buffer (ADB; 20 mM MOPS, pH 7.2, 25 mM β-glycerol phosphate, 5 mM EGTA, 1 mM sodium orthovanadate, and 1 mM dithiothreitol), 10 μL of substrate peptide (RRRDDDSDDD, dissolved in ADB at a concentration of 1 mM), 10 μL of recombinant human CK2 (RRββ-holoenzyme, 25 ng dissolved in ADB; Millipore). Reactions were initiated by the addition of 10 μL of ATP solution (90% 75 mMMgCl2, 75 μM ATP (final ATP concentration: 15 μM) dissolved in ADB; 10% [γ-33P] ATP (stock 1 mCi/100 μL; 3000 Ci/mmol (Perkin-Elmer) and maintained for 10 min at 30° C. The reactions were quenched with 100 μL of 0.75% phosphoric acid and then transferred to and filtered through a phosphor cellulose filter plate (Millipore). After washing each well five times with 0.75% phosphoric acid, the plate was dried under vacuum for 5 min and, following the addition of 15 μL of scintillation fluid to each well, the residual radioactivity was measured using a Wallac […] counter. The IC50 values were derived from eight concentrations of test inhibitors.

Assay [9] deals with H1299 (lung). Briefly: In vitro cytotoxic activity (MTT) assay, H1299. Format: cell-based. Conditions: Homo sapiens, NCI-H1299, exposed 96 hours, read-out: IC50, 50% inhibition of cell proliferation. The procedure: as §1

Structures are written as SMILES.

Turning to `O=C(O)c1cc2c([nH]1)c(Nc1cccc(Cl)c1)nc1ccncc12` [Compound 1, 6-((3-chlorophenyl)amino)-7H-pyrrolo[2,3-c][1,6]naphthyridine-8-carboxylic acid], the IC50 in assay [1] came to 1.3 µM; in assay [2], 3.2 µM; in assay [3] it was 2.5 µM; in assay [4], 2.8 µM; in assay [5] it was 1.6 µM; in assay [6] it was 1.8 µM. Further, the IC50 in assay [7] came out at 3.9 µM; in assay [8], 0.021 µM; in assay [9], 1.1 µM.

Source of the values: patent publication US11891394B1, “Pyrrolo[2,3-c][1,6]naphthyridine-8-carboxylic acid compounds as CK2 inhibitors” (KING FAISAL UNIVERSITY, priority 2023, dated 2024).
